Reference: patent US20050192279A1, “Pyridazinones as antagonists of alpha4 integrins” (priority 2004, published 2005)
Like-named read-outs stand apart in the source and are kept apart here.

Experiments:
α4β1 = target: T1, α4β1 (Homo sapiens, UniProt P05556+P13612); assay: Ramos Cell Adhesion Assay (α4β1 Mediated Adhesion/VCAM-1); type: cell-based; details: Ramos cell adhesion to hVCAM-1; read-out: α4β1 IC50
T1 construct: Ramos Cell Adhesion Assay (α4β1 Mediated Adhesion/VCAM-1); endogenous in cells; host or cells: Ramos cells
How it was run: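 Plates coated overnight at 4° C with recombinant hVCAM-1 at 4.0 μg/mL, pH 9.0, then blocked in PBS/1% BSA. Calcein AM-labeled Ramos cells added with compounds and left to adhere 1 h at room temperature; after washing, cells lysed in 1 M Tris pH 8.0/1% SDS.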

[1] = system: alpha 4 beta 7-positive cells; assay: Intraperitoneal Delayed Type Hypersensitivity (IP-DTH) Response; type: in vivo, mice; details: peritoneal cells 48 h after antigen challenge; for inhibition in vivo at 30 mg/kg: Mus musculus, 48 h, read-out: % Decrease in recruited α4β7 + cells
Description: Intraperitoneal Delayed Type Hypersensitivity (IP-DTH) Response. A Method for Analyzing Effects of Integrin Antagonists In Vivo
Integrin antagonists are meant to interfere with the binding or adhesion of immune cells, such as lymphocytes, monocytes and eosinophils that bear integrin receptors to counter-receptors that exist on endothelial cells in the vasculature. Among those integrin-bearing cells, cells that are positive for alpha 4 beta 7 integrin (found in the mesenteric system and in the gut), would comprise many of the cells recruited to a peritoneal antigen challenge. One can maximize the number of alpha 4 beta 7 integrin-positive cells recruited by inducing an intraperitoneal delayed type hypersensitivity response to antigen that will recruite antigen-responsive cells from the mesenteric lymph nodes. An inhibitor of alpha 4 beta 7 integrin should prevent the recruitment of these cells to the site of antigen challenge. Alpha 4 beta 7 integrin-positive cells are considered to be gut-homing, and are found in greater abundance in inflamed tissues of the GI tract and pancrea.
The antigenic challenge will induce a delayed type hypersensitivity response. In this model, animals were primed with antigen, then 7 days later were challenged intraperitoneally with the same antigen. During the ensuing 24-48 h, cells that were primed to recognize this antigen should be recruited to the challenge site. If the site is the peritoneal cavity, the recruited cells can be obtained by […] the cavity with a physiological buffer and collecting the lavage fluid.
The contribution of alpha 4 beta 7 integrin positive cells to the peritonal cavity cell population was ascertained by using flow cytometry to evaluate their relative percent in this population.
The mice were primed via intraperitoneal administration with 25 micrograms ovalbumin in a physiological buffer that may or may not contain alum as an adjuvant.
After 7 days, the mice were challenged with 25 micrograms ovalbumin via intraperitoneal administration.
Compounds were administered either orally (po), or subcutaneously (sc), either once daily or twice daily, for 2 days, starting on the day of antigen challenge.
Forty eight hours after antigen challenge, the elicited cells in the peritoneal cavity were harvested by lavaging the cavity in physiological saline or phosphate buffered saline, with calcium and magnesium salts.
The cells were washed into Staining Buffer consisting of phosphate buffered saline, 1% bovine serum albumin and 0.1% sodium azide, and resuspended to 2×10e7 cells/ml. A portion of 1×10e6 cells was deposited into a 96-well V-bottom plate for staining.
The sample of 1×10e6 cells was stained with fluorochrome-coupled antibody to alpha 4 beta 7 integrin or a primary antibody to alpha 4 beta 7 integrin followed by a secondary fluorochrome-coupled antibody. Each staining step was carried out at 4° C. for 30 to 45 min with gentle shaking, followed by 4 washes with Staining Buffer at 4° C. The cells were resuspended in 200 microliters of 1% paraformaldehyde in phosphate buffered saline. The cells were then transferred to test tubes and maintained at 4° C. until analyzed by flow cytometry to determine numbers of alpha4 beta7-postive cells.
A Becton-Dickenson FACSort (B-D instruments) was used for these studies.
Comparisons were made between numbers of alpha 4 beta 7-positive cells in samples taken from antigen-treated animals and numbers of alpha 4 beta 7-positive cells taken from antigen-treated animals administered experimental compounds.

T1 sequence (P13612 34-1032): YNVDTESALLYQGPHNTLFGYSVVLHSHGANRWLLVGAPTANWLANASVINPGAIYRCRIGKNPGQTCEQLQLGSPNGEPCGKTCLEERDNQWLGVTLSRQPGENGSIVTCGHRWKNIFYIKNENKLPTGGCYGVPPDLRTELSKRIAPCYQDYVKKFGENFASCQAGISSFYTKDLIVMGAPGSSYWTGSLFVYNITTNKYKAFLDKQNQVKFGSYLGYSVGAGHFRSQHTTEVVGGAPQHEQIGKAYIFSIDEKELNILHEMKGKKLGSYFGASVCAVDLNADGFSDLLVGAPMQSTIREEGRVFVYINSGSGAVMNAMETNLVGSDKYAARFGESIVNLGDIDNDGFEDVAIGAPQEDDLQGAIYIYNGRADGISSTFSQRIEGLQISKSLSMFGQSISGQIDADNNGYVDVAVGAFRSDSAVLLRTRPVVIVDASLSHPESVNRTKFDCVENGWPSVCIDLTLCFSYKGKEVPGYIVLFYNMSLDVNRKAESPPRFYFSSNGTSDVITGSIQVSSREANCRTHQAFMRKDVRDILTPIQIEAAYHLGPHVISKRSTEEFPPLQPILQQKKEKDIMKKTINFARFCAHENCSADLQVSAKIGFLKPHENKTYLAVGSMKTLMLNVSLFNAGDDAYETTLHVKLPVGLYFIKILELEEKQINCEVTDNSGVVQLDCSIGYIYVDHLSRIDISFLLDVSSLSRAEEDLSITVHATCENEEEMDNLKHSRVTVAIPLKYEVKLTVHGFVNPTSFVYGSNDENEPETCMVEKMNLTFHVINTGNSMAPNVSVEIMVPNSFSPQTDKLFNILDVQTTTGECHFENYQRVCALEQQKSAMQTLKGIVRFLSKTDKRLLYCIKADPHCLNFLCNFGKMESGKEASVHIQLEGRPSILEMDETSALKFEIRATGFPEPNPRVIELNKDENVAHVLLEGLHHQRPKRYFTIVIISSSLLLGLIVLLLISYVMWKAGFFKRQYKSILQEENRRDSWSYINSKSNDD
T1 sequence (P05556 21-798): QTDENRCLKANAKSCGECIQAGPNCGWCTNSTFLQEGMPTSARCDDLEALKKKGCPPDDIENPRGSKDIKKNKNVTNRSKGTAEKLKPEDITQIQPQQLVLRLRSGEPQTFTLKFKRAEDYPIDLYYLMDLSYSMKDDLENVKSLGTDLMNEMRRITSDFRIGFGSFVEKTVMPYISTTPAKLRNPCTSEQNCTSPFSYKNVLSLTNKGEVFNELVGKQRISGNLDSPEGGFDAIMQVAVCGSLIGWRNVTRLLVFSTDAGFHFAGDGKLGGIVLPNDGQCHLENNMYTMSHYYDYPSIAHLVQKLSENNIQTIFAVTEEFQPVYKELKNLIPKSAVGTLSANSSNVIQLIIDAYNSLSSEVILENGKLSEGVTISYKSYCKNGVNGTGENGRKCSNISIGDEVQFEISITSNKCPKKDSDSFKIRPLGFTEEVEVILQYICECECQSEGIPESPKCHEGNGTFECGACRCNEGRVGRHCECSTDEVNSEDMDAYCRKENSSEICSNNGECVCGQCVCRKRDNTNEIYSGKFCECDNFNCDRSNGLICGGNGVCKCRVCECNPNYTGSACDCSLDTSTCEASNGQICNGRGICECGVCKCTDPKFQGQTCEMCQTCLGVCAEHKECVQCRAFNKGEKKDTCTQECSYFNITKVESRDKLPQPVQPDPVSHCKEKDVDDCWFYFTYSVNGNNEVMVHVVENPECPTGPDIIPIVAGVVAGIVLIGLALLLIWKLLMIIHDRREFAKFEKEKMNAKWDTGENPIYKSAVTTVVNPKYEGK

Row | IC50 (α4β1) [nM] | SMILES | inhibition in vivo at 30 mg/kg ([1]; sc, 30 mg/kg sc bid × 2) [%] | % Decrease in recruited α4β7 + cells ([1]; 30 mg/kg sc bid × 2) [%] | inhibition in vivo at 30 mg/kg ([1]; po, 30 mg/kg po bid × 2) [%] | % Decrease in recruited α4β7 + cells ([1]; 30 mg/kg po bid × 2) [%]
1 | 307 | COc1cnn(CC(N)=O)c(=O)c1-c1ccc(C[C@H](NC(=O)c2c(Cl)cccc2Cl)C(=O)O)cc1 [Cpd 5] | 53.4 |  |  | 
2 | 363 | COc1cnn(CCN2CCOCC2)c(=O)c1-c1ccc(C[C@H](NC(=O)c2c(Cl)cccc2Cl)C(=O)O)cc1 [Cpd 10] | 56.3 |  |  | 
3 | 842 | COc1cnn(CC(=O)O)c(=O)c1-c1ccc(C[C@H](NC(=O)c2c(Cl)cccc2Cl)C(=O)O)cc1 [Cpd 11] | 70.5 |  |  | 
4 | 125 | COc1cnn(CCO)c(=O)c1-c1ccc(C[C@H](NC(=O)c2c(Cl)cccc2Cl)C(=O)O)cc1 [Cpd 15, (S)-2-(2,6-Dichloro-benzoylamino)-3{4-[2-(2-hydroxy-ethyl)-5-methoxy-3-oxo-2,3-dihydro-pyridazin-4-yl]-phenyl}-propionic acid] | 10.4 |  |  | 
5 | > 1000 | CNc1cnn(CC(C)=O)c(=O)c1-c1ccc(C[C@H](NC(=O)c2c(Cl)cccc2Cl)C(=O)O)cc1 [Cpd 18] |  | 52.8 |  | 
6 | 284 | O=C(N[C@@H](Cc1ccc(-c2c(OCc3cccnc3)cnn(CCO)c2=O)cc1)C(=O)O)c1c(Cl)cccc1Cl [Cpd 30] | 37.4 |  |  | 
7 | 342 | O=C(N[C@@H](Cc1ccc(-c2c(OCC3CC3)cnn(CCO)c2=O)cc1)C(=O)O)c1c(Cl)cccc1Cl [Cpd 35] | 49.8 |  |  | 
8 | 370 | Cn1ncc(N)c(-c2ccc(C[C@H](NC(=O)c3c(Cl)cccc3Cl)C(=O)O)cc2)c1=O [Cpd 46] | 56.6 |  |  | 
9 | 221 | O=C(N[C@@H](Cc1ccc(-c2c(N3CCOCC3)cnn(CCO)c2=O)cc1)C(=O)O)c1c(Cl)cccc1Cl [Cpd 61] | 37.4 |  |  | 
10 | 39.7 | COc1cnn(C)c(=O)c1-c1ccc(C[C@H](NC(=O)[C@@H]2C3CCC(CC3)N2C(=O)CCc2ccccc2)C(=O)O)cc1 [Cpd 89, 3-[4-(5-Methoxy-2-methyl-3-oxo-2,3-dihydro-pyridazin-4-yl)-phenyl]-2(S)-{[2-(3-phenyl-propionyl)-2-aza-bicyclo[2.2.2]octane-3(S)-carbonyl]-amino}-propionic acid] |  |  |  | 
11 |  | COc1cnn(CCO)c(=O)c1-c1ccc(C[C@H](NC(=O)OC(C)(C)C)C(=O)O)cc1 [Cpd 120] |  |  | 25.4 | 
12 | > 5000 | COC(=O)[C@H](Cc1ccc(-c2c(OC)cnn(C)c2=O)cc1)NC(=O)c1c(Cl)cccc1Cl [Cpd 151] |  |  |  | 
13 | > 5000 | COc1cnn(CCO)c(=O)c1-c1ccc(C[C@H](NC(=O)c2c(Cl)cccc2Cl)C(=O)OCCO)cc1 [Cpd 199] |  |  |  | 16.04
14 | > 5000 | COc1cnn(C)c(=O)c1-c1ccc(C[C@H](NC(=O)c2c(Cl)cccc2Cl)C(=O)OCC(C)(C)C)cc1 [Cpd 207] |  |  | 25.6 | 
15 | > 5000 | Cn1ncc(N)c(-c2ccc(C[C@H](NC(=O)c3c(Cl)cccc3Cl)C(=O)OCCO)cc2)c1=O [Cpd 232] |  |  | 47.8 | 
